In PubChem BioAssay (NCI):
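Five compound concentrations were applied to cells in 96-well plates for 48 hours; endpoints were derived by simple linear interpolation of the resulting dose-response curve. TGI is the concentration that stops growth completely.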

Key:
Assay in all cases: NCI-60 cell line screen, 48 h
[1] = test system: HS 578T breast
[2] = test system: OVCAR-3 ovarian
[3] = test system: SN12C renal
[4] = test system: UACC-257 melanoma
[5] = test system: UO-31 renal
[6] = test system: MDA-MB-435
[7] = test system: MCF7 breast
[8] = test system: MDA-N
[9] = test system: ACHN renal
[10] = test system: SK-OV-3 ovarian
[11] = test system: RXF 393 renal
[12] = test system: SK-MEL-28 melanoma
[13] = test system: A498 renal
[14] = test system: SF-539 CNS
[15] = test system: K-562 leukemia
[16] = test system: HL-60(TB) leukemia
[17] = test system: A549 NSCLC
[18] = test system: PC-3 prostate
[19] = test system: CCRF-CEM leukemia
[20] = test system: OVCAR-5 ovarian
[21] = test system: SNB-19 CNS
[22] = test system: UACC-62 melanoma
[23] = test system: MOLT-4 leukemia
[24] = test system: RPMI-8226 leukemia
[25] = test system: HOP-92 NSCLC
[26] = test system: MALME-3M melanoma
[27] = test system: SNB-75 CNS
[28] = test system: SR leukemia
[29] = test system: HOP-62 NSCLC
[30] = test system: U251 CNS
[31] = test system: 786-0 renal
[32] = test system: SF-295 CNS
[33] = test system: TK-10 renal
[34] = test system: M14 melanoma
[35] = test system: LOX IMVI melanoma
[36] = test system: EKVX NSCLC
[37] = test system: HCT-15 colon
[38] = test system: NCI/ADR-RES ovarian
[39] = test system: NCI-H460 lung
[40] = test system: T-47D breast
[41] = test system: NCI-H226 lung
[42] = test system: HCT-116 colon
[43] = test system: NCI-H522 lung
[44] = test system: SW-620 colon
[45] = test system: CAKI-1 renal
[46] = test system: HT29 colon
[47] = test system: COLO 205 colon
[48] = test system: DU-145 prostate
[49] = test system: SF-268 CNS
[50] = test system: SK-MEL-2 melanoma
[51] = test system: SK-MEL-5 melanoma
[52] = test system: MDA-MB-231 breast
[53] = test system: HCC-2998 colon
[54] = test system: NCI-H23 lung
[55] = test system: KM12 colon
[56] = test system: OVCAR-4 ovarian
[57] = test system: IGROV1 ovarian
[58] = test system: OVCAR-8 ovarian

Question: Which results are given for `O=c1ssc2ncccc12`?
Answer: TGI [1]: > 100 µM; TGI [2]: 35.6 µM; TGI [3]: 28.8 µM; TGI [4]: 50.4 µM; TGI [5]: 32 µM; TGI [6]: 31.5 µM; TGI [7]: 33 µM; TGI [8]: 34.9 µM; TGI [9]: 31.9 µM; TGI [10]: > 100 µM; TGI [11]: 37.4 µM; TGI [12]: 42.5 µM; TGI [13]: > 100 µM; TGI [14]: 70.5 µM; TGI [15]: > 100 µM; TGI [16]: > 100 µM; TGI [17]: 39.7 µM; TGI [18]: > 100 µM; TGI [19]: > 100 µM; TGI [20]: 55.1 µM; TGI [21]: > 100 µM; TGI [22]: 24 µM; TGI [23]: > 100 µM; TGI [24]: 40.5 µM; TGI [25]: > 100 µM; TGI [26]: 50.2 µM; TGI [27]: 34.9 µM; TGI [28]: > 100 µM; TGI [29]: 45.5 µM; TGI [30]: 33.1 µM; TGI [31]: 38.2 µM; TGI [32]: > 100 µM; TGI [33]: > 100 µM; TGI [34]: 41.8 µM; TGI [35]: 35 µM; TGI [36]: > 100 µM; TGI [37]: 27.4 µM; TGI [38]: > 100 µM; TGI [39]: 52.3 µM; TGI [40]: > 100 µM; TGI [41]: 7.65 µM; TGI [42]: 40.1 µM; TGI [43]: 28.9 µM; TGI [44]: 43.6 µM; TGI [45]: > 100 µM; TGI [46]: 53.6 µM; TGI [47]: 34.8 µM; TGI [48]: > 100 µM; TGI [49]: 69.6 µM; TGI [50]: 27.8 µM; TGI [51]: 25.9 µM; TGI [52]: 26.2 µM; TGI [53]: 39.3 µM; TGI [54]: > 100 µM; TGI [55]: 48 µM

Question: Which results are given for `CCCCCCCc1c(Cl)nc(Cl)nc1Cl`?
Answer: TGI [1]: 33.2 µM; TGI [2]: 17.1 µM; TGI [56]: 9.87 µM; TGI [3]: 4.65 µM; TGI [4]: 23.3 µM; TGI [5]: 17.3 µM; TGI [6]: 5.94 µM; TGI [7]: 26.9 µM; TGI [8]: 13.1 µM; TGI [9]: 20.8 µM; TGI [10]: 18.5 µM; TGI [11]: 6.26 µM; TGI [12]: 18.6 µM; TGI [13]: 34.6 µM; TGI [14]: 23.5 µM; TGI [15]: 4.16 µM; TGI [16]: 5.34 µM; TGI [17]: 32.8 µM; TGI [18]: 23.7 µM; TGI [19]: 2.66 µM; TGI [20]: 21 µM; TGI [21]: 24.4 µM; TGI [22]: 20.5 µM; TGI [23]: 3.51 µM; TGI [57]: 4.83 µM; TGI [24]: 8.85 µM; TGI [25]: 11.4 µM; TGI [26]: 8.83 µM; TGI [27]: 28.9 µM; TGI [28]: 3.14 µM; TGI [29]: 33.2 µM; TGI [30]: 9.89 µM; TGI [31]: 10.2 µM; TGI [32]: 31.6 µM; TGI [33]: 26.7 µM; TGI [34]: 4.71 µM; TGI [35]: 4.49 µM; TGI [36]: 22.2 µM; TGI [37]: 10.1 µM; TGI [38]: 13.3 µM; TGI [39]: 27.8 µM; TGI [40]: 30.4 µM; TGI [41]: 4.68 µM; TGI [42]: 9.2 µM; TGI [58]: 5.18 µM; TGI [43]: 3.85 µM; TGI [44]: 6.21 µM; TGI [45]: 5.36 µM; TGI [46]: 13.6 µM; TGI [47]: 17.9 µM; TGI [48]: 27.4 µM; TGI [49]: 16.3 µM; TGI [51]: 14.8 µM; TGI [52]: 9.54 µM; TGI [53]: 17 µM; TGI [54]: 10.2 µM; TGI [55]: 25 µM
